From patent US20250288704A1, “CXCR4-LIGANDS FOR DIAGNOSTIC AND THERAPEUTIC USE AND PRECURSORS THEREOF” (priority 2021, published 2025)
Like-named read-outs stand apart in the source and are kept apart here. Non-standard residues stand in square brackets, D forms with d. Residues, ends and D or L forms follow the SMILES beside them. Groups on a side chain read outwards from the residue. *: point of attachment. DOTA = O=C(O)CN1CCN(CC(=O)O)CCN(CC(=O)*)CCN(CC(=O)O)CC1; dTyr(3-I) = N[C@H](Cc1ccc(O)c(I)c1)C(=O)O; 2Nal = N[C@@H](Cc1ccc2ccccc2c1)C(=O)O; dNMeOrn = CN[C@H](CCCN)C(=O)O; 4Amb = NCc1ccc(C(=O)O)cc1; 4Abz = Nc1ccc(C(=O)O)cc1; dDap = NC[C@@H](N)C(=O)O

Columns and labels:
[1] = target: CXCR4 (Homo sapiens, UniProt P61073); assay: Determination of IC50: competition with 125I-Fc-131 on CXCR4-positive Jurkat cells; assay type: binding; set-up: CXCR4-positive Jurkat T lymphocyte cells were grown in Gibco's RPMI 1640 GlutaMAX medium; endogenous in cells; host or cells: Jurkat T lymphocyte cells (whole cells in suspension, 400.000 per tube);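 also: test compound at 10^−5 to 10^−11 M competed for 2 h at 8 °C with the radioligand on 400,000 cells per well, bound versus free activity measured by γ-counting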
CXCR4, sequence (P61073 whole entry): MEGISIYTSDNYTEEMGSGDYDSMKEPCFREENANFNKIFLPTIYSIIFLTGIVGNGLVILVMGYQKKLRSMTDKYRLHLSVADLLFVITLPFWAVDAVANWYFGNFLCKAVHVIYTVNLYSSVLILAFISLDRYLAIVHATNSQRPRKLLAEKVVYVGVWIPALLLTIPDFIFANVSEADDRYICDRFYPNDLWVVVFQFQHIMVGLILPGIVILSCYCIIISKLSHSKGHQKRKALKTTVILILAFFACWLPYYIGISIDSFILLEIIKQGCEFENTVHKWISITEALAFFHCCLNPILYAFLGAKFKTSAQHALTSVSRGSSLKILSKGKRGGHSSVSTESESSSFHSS

[2] = test system: CXCR4-expressing Chem_1 cells; assay: Determination of internalization, dual tracer with 125I-Fc-131; assay type: cell-based; details: for Cell-bound [%] / Internalized [%]: of total cellular activity
Procedure, shortened: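 Receptor blockade used AMD3100 (1 mM stock) versus medium-treated wells, triplicate per time point, in Chem_1 cells cultured at 37 °C in DMEM-F12/10% FBS. Activity of supernatant, surface-bound and internalized (1 M NaOH) fractions measured by γ-counter, corrected for non-specific uptake and normalised to standard ligand.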

[3] = Octanol/PBS partition coefficient (logD7.4); assay type: physicochemical; details: n-octanol/PBS pH 7.4, radiolabeled compound
Procedure: The tubes were vortexed at maximum speed for 3 min to ensure equilibrium before centrifugation at 15.000×g for 5 min on a Biofuge 15 from Heraeus Holding GmbH (Osterode, Germany). An aliquot of 100 μL of each fraction was measured in the γ-counter and the log D7.4 calculated as follows: […]

[4] = Biodistribution in Jurkat tumor-bearing CB-17 SCID mice; assay type: in vivo; set-up: tissue to tissue ratio at 1 h / tissue to tissue ratio / tissue to tissue ratio at 48 h: reference not given here; details: CB-17 SCID, mouse, in vivo, iv, total radioactivity
Procedure, shortened: (§1)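 Radioligand (125I, 177Lu, 99mTc, 18F or 68Ga label; roughly 0.5-20 MBq, 0.02-0.20 nmol) was injected intravenously via tail vein. Hosts were CB17-SCID mice with subcutaneous Jurkat tumors of 5-8 mm, 4-10 weeks post-inoculation. Dissected organs were weighed and counted in a γ-counter.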

[5] = test system: Jurkat tumor-bearing CB-17 SCID mice; assay: as above; assay type: in vivo; set-up: tissue to tissue ratio at 1 h / tissue to tissue ratio / tissue to tissue ratio at 48 h: reference not given here; details: mouse, in vivo
Procedure, shortened: as §1

In the case of `CC[C@H](C)[C@@H]([C@@H](CC(=O)N1CCC[C@H]1[C@H](OC)[C@@H](C)C(=O)N[C@H](C)[C@@H](O)c1ccccc1)OC)N(C)C(=O)[C@@H](NC(=O)[C@H](C(C)C)N(C)C(=O)OCc1ccc(NC(=O)[C@H](CCCNC(N)=O)NC(=O)[C@@H](NC(=O)CCCCCN2C(=O)CC(SCC[C@@H](N)C(=O)N[C@H](Cc3c[nH]cn3)C(=O)N[C@H](CCCNC(=N)N)C(=O)N[C@H](C)C(=O)Nc3ccc(C(=O)NCCC[C@@H]4C(=O)N[C@@H](CCCNC(=N)N)C(=O)N[C@@H](Cc5ccc6ccccc6c5)C(=O)NCC(=O)N[C@H](Cc5ccc(O)cc5)C(=O)N4C)cc3)C2=O)C(C)C)cc1)C(C)C` (stereo partly shown) [CXCR4-MMAE-3], the IC50 [1] is reported as 43.9 ± 6.18 nM, the “Internalization 2 h [% of bound peptide]” value ([2]; 2 h, 125I-labeled) is reported as 24.9 ± 0.85 % of bound peptide and the logD7.4 [3] is reported as 0.80 ± 0.12 (6).
For `C[C@@H](NC(=O)[C@@H](CCCNC(=N)N)NC(=O)[C@@H](CN)NC(=O)CN1CCN(CC(=O)O)CCN(CC(=O)O)CCN(CC(=O)O)CC1)C(=O)NCc1ccc(C(=O)NCCC[C@@H]2C(=O)N[C@@H](CCCNC(=N)N)C(=O)N[C@@H](Cc3ccc4ccccc4c3)C(=O)NCC(=O)N[C@H](Cc3ccc(O)c(I)c3)C(=O)N2C)cc1` [CXCR4-DOTA-2 [Lu]] (cyclo([dTyr(3-I)][dNMeOrn]([4Amb-dA-dR-dDap-DOTA])R[2Nal]G)), the IC50 ([1]; unlabeled or cold (natGa/natLu) compound vs 125I-Fc-131, Jurkat cells, read-out: IC50) was 6.47 ± 1.75 nM, the “Internalized in relation to 125I-Fc-131 [%]” value (“Internalized in relation … [%]” for short) ([2]; 15 min) was 247 ± 26.2% and the “Cell-bound [%]” value ([2]; 15 min) was 8.31 ± 1.20%. For the same molecule, the “Internalized [%]” value ([2]; 15 min) was 11.2 ± 1.93%, the “Internalized in relation … [%]” value ([2]; 30 min) was 347 ± 36.1% and the “Cell-bound [%]” value ([2]; 30 min) was 13.5 ± 1.38%. The “Internalized [%]” value ([2]; 30 min) was 17.8 ± 2.02%, the “Internalized in relation … [%]” value ([2]; 60 min) was 368 ± 36.9% and the “Cell-bound [%]” value ([2]; 60 min) was 16.4 ± 1.31%. The “Internalized [%]” value ([2]; 60 min) was 21.8 ± 1.10%, the “Internalized in relation … [%]” value ([2]; 120 min) was 456 ± 76.3% and the “Internalization [% Fc-131] 2 h” value ([2]; 2 h, 177Lu-labeled) was 456 % Fc-131. The “Cell-bound [%]” value ([2]; 120 min) was 22.2 ± 2.68%, the “Internalized [%]” value ([2]; 120 min) was 27.3 ± 3.62% and the tissue uptake at 1 h ([4]; female, % iD/g Blood) was 1.67 %ID/g. It also gave a tissue uptake at 1 h ([4]; female, % iD/g Bone) of 0.9 %ID/g, a tissue uptake at 1 h ([4]; female, % iD/g Heart) of 1.04 %ID/g and a tissue uptake at 1 h ([4]; female, % iD/g Intestine) of 0.9 %ID/g. It also gave a tissue uptake at 1 h ([4]; female, % iD/g Kidney) of 15.7 %ID/g, a tissue uptake at 1 h ([4]; female, % iD/g Liver) of 17.7 %ID/g and a tissue uptake at 1 h ([4]; female, % iD/g Lung) of 2.94 %ID/g. The tissue uptake at 1 h ([4]; female, % iD/g Muscle) was 0.3 %ID/g, the tissue uptake at 1 h ([4]; female, % iD/g Pancreas) was 0.53 %ID/g and the tissue uptake at 1 h ([4]; female, % iD/g Spleen) was 3.62 %ID/g. The tissue uptake at 1 h ([4]; female, % iD/g Stomach) was 1.41 %ID/g, the tissue uptake at 1 h ([4]; female, % iD/g Tumor) was 5.27 %ID/g and the logD7.4 [3] was −2.20 ± 0.06 (8).
In the case of `C[C@@H](NC(=O)[C@@H](CCCNC(=N)N)NC(=O)[C@@H](CN)NC(=O)CN1CCN(CC(=O)O)CCN(CC(=O)O)CCN(CC(=O)O)CC1)C(=O)Nc1ccc(C(=O)NCCC[C@@H]2C(=O)N[C@@H](CCCNC(=N)N)C(=O)N[C@@H](Cc3ccc4ccccc4c3)C(=O)NCC(=O)N[C@H](Cc3ccc(O)cc3)C(=O)N2C)cc1` [CXCR4-DOTA-3 [Lu]] (cyclo([dY][dNMeOrn]([4Abz-dA-dR-dDap-DOTA])R[2Nal]G)), the tissue to tissue ratio [4] is reported as 229, the tissue to tissue ratio at 1 h [4] is reported as 9.25 and the tissue to tissue ratio at 48 h [4] is reported as 1360. It also gave a tissue uptake at 1 h ([4]; Tumor activity 1 h p.i.) of 8.42 %ID/g, a tissue uptake at 6 h ([4]; Tumor activity 6 h p.i.) of 6.88 %ID/g and a tissue uptake at 48 h ([4]; Tumor activity 48 h p.i.) of 5.44 %ID/g. The tissue uptake at 1 h ([4]; female, % iD/g Blood) was 0.91 %ID/g, the tissue uptake at 6 h ([4]; female, % iD/g Blood) was 0.03 %ID/g and the tissue uptake at 1 h ([4]; female, % iD/g Bone) was 0.55 %ID/g. The tissue uptake at 6 h ([4]; female, % iD/g Bone) was 0.28 %ID/g, the tissue uptake at 48 h ([4]; female, % iD/g Bone) was 0.18 %ID/g and the tissue uptake at 1 h ([4]; female, % iD/g Heart) was 0.53 %ID/g. The tissue uptake at 6 h ([4]; female, % iD/g Heart) was 0.09 %ID/g, the tissue uptake at 48 h ([4]; female, % iD/g Heart) was 0.06 %ID/g and the tissue uptake at 1 h ([4]; female, % iD/g Intestine) was 0.44 %ID/g. For the same molecule, the tissue uptake at 6 h ([4]; female, % iD/g Intestine) was 0.44 %ID/g, the tissue uptake at 48 h ([4]; female, % iD/g Intestine) was 0.11 %ID/g and the tissue uptake at 1 h ([4]; female, % iD/g Kidney) was 14.1 %ID/g. For the same molecule, the tissue uptake at 6 h ([4]; female, % iD/g Kidney) was 13.4 %ID/g, the tissue uptake at 48 h ([4]; female, % iD/g Kidney) was 4.47 %ID/g and the tissue uptake at 1 h ([4]; female, % iD/g Liver) was 8.48 %ID/g. The tissue uptake at 6 h ([4]; female, % iD/g Liver) was 9.43 %ID/g, the tissue uptake at 48 h ([4]; female, % iD/g Liver) was 8.84 %ID/g and the tissue uptake at 1 h ([4]; female, % iD/g Lung) was 1.67 %ID/g. It also gave a tissue uptake at 6 h ([4]; female, % iD/g Lung) of 0.25 %ID/g, a tissue uptake at 48 h ([4]; female, % iD/g Lung) of 0.14 %ID/g and a tissue uptake at 1 h ([4]; female, % iD/g Muscle) of 0.18 %ID/g. The tissue uptake at 6 h ([4]; female, % iD/g Muscle) was 0.03 %ID/g, the tissue uptake at 48 h ([4]; female, % iD/g Muscle) was 0.01 %ID/g and the tissue uptake at 1 h ([4]; female, % iD/g Pancreas) was 0.28 %ID/g. It also gave a tissue uptake at 6 h ([4]; female, % iD/g Pancreas) of 0.09 %ID/g, a tissue uptake at 48 h ([4]; female, % iD/g Pancreas) of 0.05 %ID/g and a tissue uptake at 1 h ([4]; female, % iD/g Spleen) of 1.55 %ID/g. It also gave a tissue uptake at 6 h ([4]; female, % iD/g Spleen) of 1.38 %ID/g, a tissue uptake at 48 h ([4]; female, % iD/g Spleen) of 1.32 %ID/g and a tissue uptake at 1 h ([4]; female, % iD/g Stomach) of 0.94 %ID/g. It also gave a tissue uptake at 6 h ([4]; female, % iD/g Stomach) of 0.25 %ID/g, a tissue uptake at 48 h ([4]; female, % iD/g Stomach) of 0.07 %ID/g and a tissue uptake at 1 h ([4]; female, % iD/g Tumor) of 8.42 %ID/g. The tissue uptake at 6 h ([4]; female, % iD/g Tumor) was 6.88 %ID/g, the tissue uptake at 48 h ([4]; female, % iD/g Tumor) was 5.44 %ID/g and the “Calculated tumor retention 6 h compared to the 1 h-value” [5] was 82%. The “Calculated tumor retention 48 h compared to the 1 h-value” [5] was 65%.
